Test results published in publication PMC10294837 (Antioxidants, 2023).
Like-named read-outs stand apart in the source and are kept apart here.

Assays:
[1] = biological target: T1, malate dehydrogenase (MDH) (Sus scrofa, UniProt P00346); assay: Activity of malate dehydrogenase in pig brain mitochondria; type: biochemical; conditions: mean ± SD, N = 3
T1 construct: used to determinate mitochondrial enzymes activities (ETC complexes, CS, malate dehydrogenase, and MAO); from tissue; host or cells: pig brain cortex mitochondria (frozen, ultrasonicated)
T1 sequence (P00346 25-338): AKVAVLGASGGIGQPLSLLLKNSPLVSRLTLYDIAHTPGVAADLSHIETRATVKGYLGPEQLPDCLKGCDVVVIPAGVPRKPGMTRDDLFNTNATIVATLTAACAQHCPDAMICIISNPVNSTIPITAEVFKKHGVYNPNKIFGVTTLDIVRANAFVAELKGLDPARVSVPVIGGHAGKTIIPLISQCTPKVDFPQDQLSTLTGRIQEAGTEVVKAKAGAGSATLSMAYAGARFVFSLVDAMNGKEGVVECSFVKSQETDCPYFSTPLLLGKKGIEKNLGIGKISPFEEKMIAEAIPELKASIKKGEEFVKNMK
Procedure: Ultrasonicated mitochondria were incubated with the tested drugs for 30 min at 30 °C, with a corresponding drug-free control for every measurement. The activities of mitochondrial enzymes were determined as the absorbance measured with a GENESYS 180 UV-Vis spectrophotometer (Thermo Fisher Scientific, Waltham, MA, USA). The conversion of oxaloacetate to malate was used to measure malate dehydrogenase (MDH) activity. The reaction was started by adding oxaloacetate and nicotinamide adenine dinucleotide (NADH) (measured at 340 nm for 3 min). […] […] An ATP standard curve was constructed.

[2] = system: complex II-linked respiration in isolated mitochondria; assay: Complex II-linked respiration, high-resolution respirometry in isolated mitochondria; type: biochemical, pig
Procedure: (§1) The mitochondrial fraction was isolated and purified from the pig brain cortex. For high-resolution respirometry and ATP assays, freshly prepared mitochondria were kept on ice. Part of the mitochondria was frozen, stored at −70 °C, and used to determinate mitochondrial enzymes activities (ETC complexes, CS, malate dehydrogenase, and MAO).
The high-resolution Oxygraph-2k (Oroboros Instruments Corp, Innsbruck, Austria) was used to measure mitochondrial oxygen consumption rate. […] The final protein concentration was 0.05–0.14 mg/mL.
(§2) Respiration rate (oxygen flux) was quantified as the number of pmol of oxygen consumed per second per mg of a protein.
(§3) Four-parametric logistic regression was used to analyze inhibition of respiratory rate and MAO activity to determine half-maximal inhibitory concentration (IC50), residual activity, and Hill slope. Prism software from GraphPad (San Diego, CA, USA) was used for this analysis.

[3] = biological target: T2, MAO-A (Sus scrofa, UniProt Q6Q2J0); assay: MAO-A activity, radiolabeled [3H]serotonin substrate, pig brain mitochondria; type: biochemical
T2 construct: from tissue; host or cells: pig brain cortex mitochondria
T2 sequence (Q6Q2J0 1-527): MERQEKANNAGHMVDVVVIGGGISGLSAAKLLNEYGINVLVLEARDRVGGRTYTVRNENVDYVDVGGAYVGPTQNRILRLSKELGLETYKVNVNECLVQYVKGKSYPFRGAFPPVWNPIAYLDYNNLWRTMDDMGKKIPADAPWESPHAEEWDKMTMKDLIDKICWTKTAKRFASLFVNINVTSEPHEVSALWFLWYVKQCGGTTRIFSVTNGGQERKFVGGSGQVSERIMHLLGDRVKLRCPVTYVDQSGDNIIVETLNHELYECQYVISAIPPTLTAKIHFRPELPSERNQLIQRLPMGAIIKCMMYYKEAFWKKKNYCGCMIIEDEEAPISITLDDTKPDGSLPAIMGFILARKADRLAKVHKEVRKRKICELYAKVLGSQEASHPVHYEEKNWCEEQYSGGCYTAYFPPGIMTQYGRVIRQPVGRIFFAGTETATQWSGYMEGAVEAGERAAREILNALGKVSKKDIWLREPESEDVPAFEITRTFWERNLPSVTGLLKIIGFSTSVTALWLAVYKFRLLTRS
Procedure: (§4) KH buffer was used to preincubate mitochondria (final concentration of 800 µg/mL) with the tested drugs (concentration range of 0.1–300 µmol/L). MAO enzymatic activity was measured using radiolabeled substrates ([^3H]serotonin for MAO-A and [^14C]PEA for MAO-B). The reaction was terminated with hydrochloric acid, the organic phase was separated, and the radioactivity was determined by liquid scintillation counting (LS 6000IC, Beckman Instruments, Inc., Fullerton, CA, USA).
as §3

[4] = biological target: T3, MAO-B (Sus scrofa, UniProt Q6PLK3); assay: MAO-B activity, radiolabeled [14C]PEA substrate, pig brain mitochondria; type: biochemical; conditions: for Hill Slope, MAO-B / IC50 / Residual Activity, MAO-B: mean ± SEM, four measurements
T3 construct: from tissue; host or cells: pig brain cortex mitochondria
T3 sequence (Q6PLK3 1-520): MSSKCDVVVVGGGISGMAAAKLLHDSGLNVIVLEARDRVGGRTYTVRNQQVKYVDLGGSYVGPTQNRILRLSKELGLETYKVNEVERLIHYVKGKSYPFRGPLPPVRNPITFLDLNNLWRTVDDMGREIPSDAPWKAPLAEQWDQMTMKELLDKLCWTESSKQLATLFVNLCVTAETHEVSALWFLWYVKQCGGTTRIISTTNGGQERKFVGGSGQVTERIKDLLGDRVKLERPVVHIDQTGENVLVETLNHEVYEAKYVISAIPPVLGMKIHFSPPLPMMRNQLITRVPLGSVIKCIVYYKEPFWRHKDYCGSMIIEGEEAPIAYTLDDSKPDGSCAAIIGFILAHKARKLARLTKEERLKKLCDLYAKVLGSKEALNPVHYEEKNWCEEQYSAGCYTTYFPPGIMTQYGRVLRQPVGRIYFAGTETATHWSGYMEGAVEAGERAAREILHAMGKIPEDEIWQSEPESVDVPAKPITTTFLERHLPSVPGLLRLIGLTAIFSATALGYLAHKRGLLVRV
Procedure: as §4, §3

[5] = biological target: T4, citrate synthase (CS) (Sus scrofa, UniProt P00889); assay: Activity of citrate synthase in pig brain mitochondria; type: biochemical; conditions: mean ± SD, N = 3
T4 construct: used to determinate mitochondrial enzymes activities (ETC complexes, CS, malate dehydrogenase, and MAO); from tissue; host or cells: pig brain cortex mitochondria (frozen, ultrasonicated)
T4 sequence (P00889 28-464): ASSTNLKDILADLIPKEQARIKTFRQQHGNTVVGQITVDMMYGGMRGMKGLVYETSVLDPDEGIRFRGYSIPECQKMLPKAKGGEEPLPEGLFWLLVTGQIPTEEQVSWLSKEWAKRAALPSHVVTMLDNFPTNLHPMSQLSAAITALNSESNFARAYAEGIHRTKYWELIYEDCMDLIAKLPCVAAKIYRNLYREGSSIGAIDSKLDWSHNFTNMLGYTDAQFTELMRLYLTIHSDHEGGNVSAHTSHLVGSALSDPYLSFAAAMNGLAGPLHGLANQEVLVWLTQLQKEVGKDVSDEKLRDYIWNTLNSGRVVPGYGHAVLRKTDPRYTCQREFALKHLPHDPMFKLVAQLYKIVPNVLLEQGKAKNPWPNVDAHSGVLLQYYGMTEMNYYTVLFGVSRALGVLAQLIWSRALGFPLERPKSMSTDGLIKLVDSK
Procedure: Ultrasonicated mitochondria were incubated with the tested drugs for 30 min at 30 °C, with a corresponding drug-free control for every measurement. The activities of mitochondrial enzymes were determined as the absorbance measured with a GENESYS 180 UV-Vis spectrophotometer (Thermo Fisher Scientific, Waltham, MA, USA). […] […] […] An ATP standard curve was constructed.

[6] = system: complex I-linked respiration in isolated mitochondria; assay: Complex I-linked respiration, high-resolution respirometry in isolated mitochondria; type: biochemical, pig; conditions: for IC50: four-parameter logistic; for IC50 / Residual Activity, complex I-linked respiration: mean ± SEM, four measurements
Procedure: as §1
The high-resolution Oxygraph-2k (Oroboros Instruments Corp, Innsbruck, Austria) was used to measure mitochondrial oxygen consumption rate.
as §2, §3

Row | Inhibition (partial/full), MAO-A [3] | IC50 ([3]; mean ± SEM, four measurements) [µM] | Inhibition (partial/full), MAO-B [4] | IC50 [4] [µM] | SMILES | MDH (% of control) ([1]; 10 μM) | MDH (% of control) ([1]; 100 μM) | Residual Activity, MAO-A ([3]; mean ± SEM, four measurements) [rel.u.] | Hill Slope, MAO-B [4] | Residual Activity, MAO-B [4] [rel.u.] | CS (% of control) ([5]; 10 μM) | CS (% of control) ([5]; 100 μM) | Inhibition (partial/full), complex I-linked respiration [6] | IC50 [6] [µM] | Residual Activity, complex I-linked respiration [6] [rel.u.] | also measured
1 | full | 8.78 ± 2.27 | full | 15.2 ± 2.23 | CN(C)CCC[C@@]1(c2ccc(F)cc2)OCc2cc(C#N)ccc21 [escitalopram] |  |  |  |  |  |  |  | partial | 0.14 ± 0.08 | 0.774 ± 0.015 | Inhibition (partial/full), MAO-A ([3]; listed as ESC): full inhibitors; Inhibition (partial/full), MAO-B ([4]; listed as ESC): full inhibitors
2 | full | 0.47 ± 0.06 | full | 2.19 ± 0.21 | Fc1ccc([C@@H]2CCNC[C@H]2COc2ccc3c(c2)OCO3)cc1 [paroxetine] | 100.1 ± 2.22 % of control | 97.9 ± 1.71 % of control | 0.007 ± 0.017 | 1.06 ± 0.10 | 0.015 ± 0.021 | 105.8 ± 1.69 % of control | 98.4 ± 0.85 % of control | partial | 26.7 ± 6.73 | 0.672 ± 0.029 | Inhibition (partial/full), MAO-A ([3]; listed as PAR): full inhibitors; Hill Slope, MAO-A ([3]; mean ± SEM, four measurements): 1.65 ± 0.22; Inhibition (partial/full), MAO-B ([4]; listed as PAR): full inhibitors

Row | SMILES | Inhibition (partial/full), MAO-A [3] | IC50 ([3]; mean ± SEM, four measurements) [µM] | Inhibition (partial/full), MAO-B [4] | IC50 [4] [µM] | MDH (% of control) ([1]; 10 μM) | MDH (% of control) ([1]; 100 μM) | Residual Activity, MAO-A ([3]; mean ± SEM, four measurements) [rel.u.] | Hill Slope, MAO-B [4] | Residual Activity, MAO-B [4] [rel.u.] | CS (% of control) ([5]; 10 μM) | CS (% of control) ([5]; 100 μM) | Inhibition (partial/full), complex I-linked respiration [6] | IC50 [6] [µM] | Residual Activity, complex I-linked respiration [6] [rel.u.] | also measured
3 | CC(NC(C)(C)C)C(=O)c1cccc(Cl)c1 (stereo not shown) [bupropion] | partial | 20.1 ± 5.68 | partial | 31.5 ± 3.32 | 99.2 ± 2.90 % of control | 99.6 ± 2.72 % of control | 0.235 ± 0.050 | 1.68 ± 0.20 | 0.410 ± 0.018 | 105.6 ± 1.29 % of control | 99.5 ± 0.93 % of control |  |  |  | Inhibition (partial/full), complex II-linked respiration [2]: partial; IC50 ([2]; four-parameter logistic, mean ± SEM, four measurements): 10.6 ± 4.49 µM; Inhibition (partial/full), complex II-linked respiration ([2]; listed as BUP): weak partial inhibitor; Residual Activity, complex II-linked respiration ([2]; mean ± SEM, four measurements): 0.690 ± 0.045 rel.u.; Inhibition (partial/full), MAO-A ([3]; listed as BUP): partial inhibitors; Inhibition (partial/full), MAO-B ([4]; listed as BUP): partial MAO-B inhibitors
